Results: ChEMBL document CHEMBL2057087, “Design, synthesis and vasodilative activity of tanshinone IIA derivatives” (2012)

Each molecule was assayed on Aorta (assay: Vasodilatory activity in Wistar rat thoracic aorta rings assessed as inhibition of norepinephrine hydrochloride-induced contraction at 1 X 10 '-4 M).
Assay type: functional
`Cc1coc2c1C(=O)C(=O)c1c-2ccc2c1C(OC(=O)c1cccc(F)c1)CCC2(C)C` (stereo not given) gave an inhibition at 100 µM of -3.59%. `Cc1coc2c1C(=O)C(=O)c1c-2ccc2c1C(OC(=O)Cc1ccc(O)cc1)CCC2(C)C` (stereo not given) gave an inhibition at 100 µM of -1.67%. Molecule `Cc1coc2c1C(=O)C(=O)c1c-2ccc2c1C(OC(=O)c1ccc(F)cc1)CCC2(C)C` (stereo not given) has an inhibition at 100 µM of -3.3%. `Cc1coc2c1C(=O)C(=O)c1c-2ccc2c1C(OC(=O)Cc1ccccc1O)CCC2(C)C` (stereo not given) showed an inhibition at 100 µM of -0.37%. `Cc1coc2c1C(=O)C(=O)c1c-2ccc2c1CCCC2(C)C` [TANSHINONE IIA] showed an inhibition at 100 µM of 1.86%. Molecule `Cc1coc2c1C(=O)C(=O)c1c-2ccc2c1C(OC(=O)c1cccc(O)c1)CCC2(C)C` (stereo not given) has an inhibition at 100 µM of 19.1%. For `COc1ccc(CC(=O)OC2CCC(C)(C)c3ccc4c(c32)C(=O)C(=O)c2c(C)coc2-4)cc1` (stereo not given), the inhibition at 100 µM was 20.2%. In the case of `Cc1coc2c1C(=O)C(=O)c1c-2ccc2c1C(OC(=O)Cc1ccc(F)cc1)CCC2(C)C` (stereo not given), the inhibition at 100 µM is reported as -13.3%. For `COc1cccc(C(=O)OC2CCC(C)(C)c3ccc4c(c32)C(=O)C(=O)c2c(C)coc2-4)c1` (stereo not given), the inhibition at 100 µM was -0.25%. `Cc1coc2c1C(=O)C(=O)c1c-2ccc2c1C(OC(=O)c1ccccc1)CCC2(C)C` (stereo not given) showed an inhibition at 100 µM of -9.41%. Molecule `Cc1coc2c1C(=O)C(=O)c1c-2ccc2c1C(OC(=O)c1ccccc1O)CCC2(C)C` (stereo not given) has an inhibition at 100 µM of 22.4%. For `Cc1coc2c1C(=O)C(=O)c1c-2ccc2c1C(OC(=O)c1ccccc1F)CCC2(C)C` (stereo not given), the inhibition at 100 µM was 21.8%. With `Cc1coc2c1C(=O)C(=O)c1c-2ccc2c1C(OC(=O)Cc1cccc(O)c1)CCC2(C)C` (stereo not given) the inhibition at 100 µM was -4.92%. `Cc1coc2c1C(=O)C(=O)c1c-2ccc2c1C(OC(=O)c1ccc(O)cc1)CCC2(C)C` (stereo not given) was tested, and the inhibition at 100 µM was 9.39%. With `COc1ccccc1C(=O)OC1CCC(C)(C)c2ccc3c(c21)C(=O)C(=O)c1c(C)coc1-3` (stereo not given) the inhibition at 100 µM was 7.58%. Work on `COc1ccc(C(=O)OC2CCC(C)(C)c3ccc4c(c32)C(=O)C(=O)c2c(C)coc2-4)cc1` (stereo not given) yielded an inhibition at 100 µM of 23.5%. `COc1ccccc1CC(=O)OC1CCC(C)(C)c2ccc3c(c21)C(=O)C(=O)c1c(C)coc1-3` (stereo not given) was tested, and the inhibition at 100 µM was 12.8%. For `Cc1coc2c1C(=O)C(=O)c1c-2ccc2c1C(OC(=O)Cc1ccccc1)CCC2(C)C` (stereo not given), the inhibition at 100 µM was -17.8%. `COc1cccc(CC(=O)OC2CCC(C)(C)c3ccc4c(c32)C(=O)C(=O)c2c(C)coc2-4)c1` (stereo not given) gave an inhibition at 100 µM of 29.4%. For `Cc1coc2c1C(=O)C(=O)c1c-2ccc2c1C(OC(=O)Cc1ccccc1F)CCC2(C)C` (stereo not given), the inhibition at 100 µM was 1.92%. Work on `Cc1coc2c1C(=O)C(=O)c1c-2ccc2c1C(OC(=O)Cc1cccc(F)c1)CCC2(C)C` (stereo not given) yielded an inhibition at 100 µM of -2.78%.

What follows are molecules tested on Aorta (assay: Vasodilatory activity in Wistar rat thoracic aorta rings assessed as inhibition of norepinephrine hydrochloride-induced contraction).
Assay type: functional, tissue-based
`Cc1coc2c1C(=O)C(=O)c1c-2ccc2c1C(OC(=O)c1ccccc1O)CCC2(C)C` (stereo not given) was tested, and the inhibition was “Dose-dependent effect”. In the case of `Cc1coc2c1C(=O)C(=O)c1c-2ccc2c1C(OC(=O)c1ccccc1F)CCC2(C)C` (stereo not given), the inhibition is reported as “Dose-dependent effect”. For `COc1ccc(C(=O)OC2CCC(C)(C)c3ccc4c(c32)C(=O)C(=O)c2c(C)coc2-4)cc1` (stereo not given), the inhibition was “Dose-dependent effect”. For `COc1cccc(CC(=O)OC2CCC(C)(C)c3ccc4c(c32)C(=O)C(=O)c2c(C)coc2-4)c1` (stereo not given), the inhibition was “Dose-dependent effect”.
